Test results reported in patent publication US20110207689A1, “THE TREATMENT OF HEARING LOSS” (Auckland UniServices Limited, priority 2008, published 2011).

System: rats exposed to 8-12 kHz band noise for 24 hours at 110 dB SPL
Assay: ABR threshold recovery after prolonged (24 hours) noise exposure, systemic ADAC (Experiment 1)
Type: in vivo, Wistar rats
Settings: for recovery of ABR thresholds: 24 h noise 110 dB SPL
Method: In Experiments 1 and 2, Wistar rats were exposed to noise (8-12 kHz, 110 dB SPL for 2-24 hours). ADAC was then administered to the Wistar rats at 100 μg/kg/day. The ADAC was either administered as a single injection 6 hours after noise exposure, or as a single injection 24 hours after noise exposure, or as multiple injections, with the first injection of the multiple injections being administered 6 hours after noise exposure.
Hearing thresholds were assessed using auditory brainstem responses (ABRs) and the cellular damage was evaluated by quantitative histology (hair cell loss). ABR represents the activity of the auditory nerve and the central auditory pathways (brainstem/mid-brain regions) responding to the sound (clicks or pure tones). Nitrotyrosine marker was used for the immunohistochemical assessment of free radical damage.
Adenosine amine congener (ADAC) was obtained from Dr Ken Jacobson (NIH, Bethesda, USA). ADAC ([…]) was dissolved first in 100 μL of 1N HCl and then in 50 ml of 0.1 M PBS (pH 7.4), making a 50 μg/mL stock solution. This solution was aliquoted at 1 mL in eppendorf tubes, and stored at −20° C. for later use. When required, the ADAC aliquots were heated in a 37° C. water bath for 30 minutes before administration. ADAC injection dose was […] given intraperitoneally, 200 μl/100 g body weight.
The rats were exposed to 8-12 kHz band noise presented for 24 hours at 110 dB SPL. This was done in a custom built acoustic chamber (Shelburg Acoustics, Sydney, Australia) with internal speakers and external controls (sound generator and frequency selector). Sound intensity inside the chamber was tested using a calibrated Rion NL-40 sound level meter to ensure minimal deviations of sound intensity (110±1 dB SPL). Up to 4 rats were placed in the chamber in a standard rat cage. They were introduced to the sound chamber at 1 hour intervals so that the timing of subsequent ABRs could be kept consistent for all rats.
ABR represents the activity of the auditory nerve and the central auditory pathways (brainstem/mid-brain regions) responding to the sound (clicks or pure tones). ABRs were obtained by placing fine platinum electrodes subdermally at the mastoid region of the ear of interest (active electrode), scalp vertex (reference) and mastoid region of the opposite ear (ground electrode). A series of auditory clicks or pure tones (4-28 kHz) presented at varying intensity and thresholds generate electrical activity reflecting differing levels of auditory processing. The sound threshold of the ABR complex (waves I-IV) were determined by progressively attenuating the sound intensity until the waveform can no longer be observed.
The acoustic stimuli for ABR were produced and the responses recorded using a Tucker-Davis Technologies auditory physiology workstation (Alachua, Fla., USA).
All ABR measurements were performed in a sound attenuator chamber (Shelburg Acoustics, Sydney, Australia). Rats were anaesthetised with the mixture of Ketamine (75 mg/kg) and Xylazine (10 mg/kg) intraperitoneally, and then placed onto a heating pad, to maintain body temperature at 37° C. ABR potentials were evoked with digitally produced 5 ms tone pips (0.5 ms rise-fall time) at frequencies between 4 and 28 kHz in half-octave steps. Sound pressure level (SPL) was raised in 5 dB steps starting from 10 dB below threshold level to 90 dB SPL. Responses were averaged at each sound level (1024 repeats with stimulus polarity alternated), and response waveforms were discarded when peak-to-peak amplitude exceeded 15 μV. The ABR threshold was defined as the lowest intensity (to the nearest 5 dB) at which a response could be visually detected above the noise floor.
ABR thresholds were measured before and after noise exposure, and after ADAC/vehicle treatment. Post-noise ABR recordings were obtained 1 hour before the rats received their first ADAC or vehicle injection. […]

Structure (SMILES): NCCNC(=O)Cc1ccc(NC(=O)Cc2ccc(Nc3ncnc4c3ncn4[C@@H]3O[C@H](CO)[C@@H](O)[C@H]3O)cc2)cc1 [ADAC, adenosine amine congener]
- effect on threshold recovery (ADAC administration 24 hours after noise exposure, FIG. 3): less pronounced
- recovery of ABR thresholds at all pure tone frequencies (chronic treatment (5 days, five injections every 24 hours commencing 6 hours post-noise), 100 μg/kg i.p.): 22-28 dB
- highest recovery of ABR thresholds (mean ± SEM) (group that received multiple injections of ADAC (FIGS. 4 and 5), follows sentence on auditory clicks): 29 dB
- best recovery of hearing thresholds (prolonged ADAC treatment (5 injections), FIG. 4): < 25 dB
- lowest recovery of ABR thresholds (mean ± SEM) (single ADAC injection 24 hours after noise exposure (FIGS. 3 and 5), follows sentence on auditory clicks): 8±2 dB
- recovery of ABR thresholds (single injection ADAC 100 μg/kg i.p. 24 hours after noise exposure): 5-12 dB
- recovery of ABR thresholds (single injection ADAC 100 μg/kg i.p., early treatment 6 hours after noise): 17-26 dB
- threshold recovery versus control group (single injection of ADAC 6 hours after noise exposure, pure tones and auditory clicks, p<0.05, p<0.01): statistically significant difference between the groups in the level of recovery
